{
  "source": "patent US9943554B2",
  "about": "“Compositions and methods relating to solenopsins and their uses in treating neurological disorders and enhancing physical performance” (priority 2006, dated 2018)",
  "key": {"[1]": {"assay": "PK profile in plasma and brain of APP transgenic animals", "format": "in vivo, APP transgenic mice", "settings": "orally 10 mg/kg", "method": "For PK profile, the APP transgenic animals were administered SPI-001, and blood samples and brain tissue were collected and subjected to drug analysis."}, "CamK1δ": {"target": "CamK1δ (Homo sapiens, UniProt Q8IU85)", "sequence (Q8IU85 whole entry)": "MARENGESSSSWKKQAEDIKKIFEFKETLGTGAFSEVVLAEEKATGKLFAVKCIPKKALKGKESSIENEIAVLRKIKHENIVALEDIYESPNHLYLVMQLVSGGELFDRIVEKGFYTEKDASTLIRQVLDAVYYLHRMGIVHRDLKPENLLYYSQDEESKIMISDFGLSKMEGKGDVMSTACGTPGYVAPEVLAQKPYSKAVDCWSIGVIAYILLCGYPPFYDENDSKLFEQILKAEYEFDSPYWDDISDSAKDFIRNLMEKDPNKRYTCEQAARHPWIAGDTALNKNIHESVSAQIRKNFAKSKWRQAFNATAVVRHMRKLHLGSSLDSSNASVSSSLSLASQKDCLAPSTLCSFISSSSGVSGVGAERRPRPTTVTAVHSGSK", "assay": "Initial studies: CamK1δ", "format": "biochemical"}, "Aβ1-42 peptide [2]": {"test_system": "Aβ1-42 peptide", "assay": "Acute administration for 7 days: brain and plasma Aβ1-42 peptide levels", "format": "in vivo, APP transgenic mice", "settings": "10 mg/kg for 7 days in 25% PEG 400, at 7 days", "method": "Animals were dosed once with SPI-001 and then examined at 7 days for AP peptide levels."}, "Solubility of SPI-001": {"assay": "Solubility of SPI-001", "format": "physicochemical", "settings": "for solubility: organic solvent or mixture", "method": "Based on chemical synthesis of SPI-001 and mass spec analysis, the compound has a molecular weight of <500. It is not a protein or peptide, but is a small molecule. SPI-001 is soluble in dimethyl sulfoxide (DMSO) and ethanol to 100 mg/ml. […] SPI-001 can be resuspended in 25% polyethylene glycol (PEG) 400 for oral delivery."}, "Aβ peptide": {"test_system": "Aβ peptide", "assay": "Aβ peptide levels in the brain after repetitive administration for 3 months", "format": "in vivo", "settings": "APP transgenic mice; 10 mg/kg orally daily for 3 months; compared to control animals", "source_text": "(§1) The APP mice (male) used in these experiments were designed by microinjection of the human APP gene (with the Swedish and London mutations) into mouse eggs under the control of the platelet-derived growth factor B (PDGF-B) chain gene promoter. The mice were generated on a C57BL/6 background. Animals were housed in the Medical University of South Carolina Animal Facility under a 12:12 light:dark cycle. Animals were housed in standard non-sterile rodent microisolator cages, with filtered cage tops and housed 4 to a cage. Animals were fed ad libitum and maintained by brother sister mating. Transgenic animals were identified by PCR analysis. The mice generated from this construct develop amyloid deposits starting at 3 months of age. Animals were aged for 3 months and then maintained for 90 days and sacrificed for amyloid quantification.\n(§2) SPI-001 was administered to APP transgenic mice at 10 mg/kg for 3 months to determine the effect upon Aβ peptide and amyloid load. Animals were administered SPI-001 orally in 25% PEG daily and examined for abnormal pathology. […] Animals were analyzed for behavioral changes associated with drug treatment (FIG. 7). […] FIG. 8 illustrates the plaque load in the brains of control and SPI-001 treated animals."}, "MSK1": {"target": "MSK1 (Homo sapiens, UniProt O75582)", "sequence (O75582 whole entry, species assumed)": "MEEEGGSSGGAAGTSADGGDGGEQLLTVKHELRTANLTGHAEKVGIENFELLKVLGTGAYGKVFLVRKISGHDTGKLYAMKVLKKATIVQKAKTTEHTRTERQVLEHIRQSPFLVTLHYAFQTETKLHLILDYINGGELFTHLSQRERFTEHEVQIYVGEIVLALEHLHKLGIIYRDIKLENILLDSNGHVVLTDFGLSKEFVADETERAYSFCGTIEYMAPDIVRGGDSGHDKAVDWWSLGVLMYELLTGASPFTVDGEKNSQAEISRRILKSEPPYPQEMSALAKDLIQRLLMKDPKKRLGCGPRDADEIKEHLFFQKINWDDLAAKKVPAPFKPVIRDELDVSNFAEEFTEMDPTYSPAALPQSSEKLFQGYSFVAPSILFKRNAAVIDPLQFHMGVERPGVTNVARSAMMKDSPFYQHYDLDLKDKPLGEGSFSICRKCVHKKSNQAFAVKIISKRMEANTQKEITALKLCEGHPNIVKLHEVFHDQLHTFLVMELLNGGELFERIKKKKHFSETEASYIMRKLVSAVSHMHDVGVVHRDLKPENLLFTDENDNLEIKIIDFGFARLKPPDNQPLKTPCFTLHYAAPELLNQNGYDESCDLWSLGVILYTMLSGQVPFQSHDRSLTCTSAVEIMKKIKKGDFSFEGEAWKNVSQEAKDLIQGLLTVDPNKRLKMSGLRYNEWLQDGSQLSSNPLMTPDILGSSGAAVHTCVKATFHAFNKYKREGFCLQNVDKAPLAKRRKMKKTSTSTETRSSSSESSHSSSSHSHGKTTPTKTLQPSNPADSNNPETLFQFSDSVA", "assay": "Initial studies: MSK1", "format": "biochemical"}, "Na+ channels": {"test_system": "Na+ channels", "assay": "CEREP screen: Na+ channels", "format": "binding", "settings": "SPI-001 10 mM", "method": "(§3) Recent CEREP screen indicated for SPI-001 ([…]) that it inhibited muscarinic receptors (M1, M2 and M3), Na+ channels and monoamine (NE, DA, and 5-HT) transporters with high affinity (˜90%)."}, "Pl3 kinase": {"test_system": "Pl3 kinase", "assay": "Initial studies: Pl3 kinase", "format": "biochemical"}, "Aβ1-42 peptide [3]": {"test_system": "Aβ1-42 peptide", "assay": "Brain and plasma Aβ1-42 peptide levels in APP transgenic mice after single oral administration", "format": "in vivo", "source_text": "as §1\nFIG. 2 illustrates the effect of SPI-001 on brain Aβ1-42 peptide levels when administered at 10 mg/kg orally to the APP transgenic mice. Animals were dosed once with SPI-001 and then examined at 0, 4, 24 hours and 7 days for A[…] peptide levels (Biosource International). […] The plasma levels were opposite to the brain levels.\nAnimals were dosed once with SPI-001 and then examined at 0, 4, 24, 48 hours and 7 days for A[…] peptide levels. […] The plasma levels were opposite to the brain levels."}, "Aβ1-42 peptide [4]": {"test_system": "Aβ1-42 peptide", "assay": "Brain and plasma Aβ1-42 peptide levels in guinea pigs after single oral administration", "format": "in vivo", "settings": "Guinea Pig, single 10 mg/kg oral", "method": "Animals were dosed once with SPI-001 and then examined at 0, 4, 24, 48 hours and 7 days for AP peptide levels."}, "amyloid load": {"test_system": "amyloid load", "assay": "Amyloid (plaque) load in the brain after repetitive administration for 3 months", "format": "in vivo", "settings": "APP transgenic mice; 10 mg/kg orally daily for 3 months; compared to control animals", "source_text": "as §1, §2"}, "APP transgenic mice": {"test_system": "APP transgenic mice", "assay": "Examination for abnormal pathology after repetitive administration for 3 months", "format": "in vivo", "settings": "10 mg/kg orally daily for 3 months", "method": "as §2"}, "[5]": {"target": "T1, monoamine (5-HT) transporters (Homo sapiens, UniProt P31645)", "T1 construct": "CEREP", "T1 sequence (P31645 whole entry)": "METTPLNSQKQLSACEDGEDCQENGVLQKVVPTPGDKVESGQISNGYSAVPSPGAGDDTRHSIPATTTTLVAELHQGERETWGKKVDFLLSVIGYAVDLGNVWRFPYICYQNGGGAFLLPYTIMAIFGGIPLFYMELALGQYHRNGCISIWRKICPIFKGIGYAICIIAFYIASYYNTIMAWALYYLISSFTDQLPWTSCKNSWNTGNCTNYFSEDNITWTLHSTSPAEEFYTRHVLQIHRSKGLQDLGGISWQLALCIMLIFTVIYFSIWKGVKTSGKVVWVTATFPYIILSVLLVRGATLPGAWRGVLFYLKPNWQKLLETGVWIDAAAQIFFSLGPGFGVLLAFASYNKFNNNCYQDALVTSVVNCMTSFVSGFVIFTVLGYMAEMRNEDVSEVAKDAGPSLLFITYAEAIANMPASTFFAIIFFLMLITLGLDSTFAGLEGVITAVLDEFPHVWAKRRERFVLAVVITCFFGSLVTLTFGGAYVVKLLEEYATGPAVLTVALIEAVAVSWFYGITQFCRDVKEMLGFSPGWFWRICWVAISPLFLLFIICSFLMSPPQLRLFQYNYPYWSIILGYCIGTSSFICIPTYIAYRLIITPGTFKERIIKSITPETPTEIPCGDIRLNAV", "assay": "CEREP screen: 5-HT transporter", "format": "binding", "parameters": "dose or concentration left out as unconfirmed", "method": "as §3"}, "[6]": {"target": "T2, muscarinic receptors (M2) (Homo sapiens, UniProt P08172)", "T2 construct": "CEREP", "T2 sequence (P08172 1-466)": "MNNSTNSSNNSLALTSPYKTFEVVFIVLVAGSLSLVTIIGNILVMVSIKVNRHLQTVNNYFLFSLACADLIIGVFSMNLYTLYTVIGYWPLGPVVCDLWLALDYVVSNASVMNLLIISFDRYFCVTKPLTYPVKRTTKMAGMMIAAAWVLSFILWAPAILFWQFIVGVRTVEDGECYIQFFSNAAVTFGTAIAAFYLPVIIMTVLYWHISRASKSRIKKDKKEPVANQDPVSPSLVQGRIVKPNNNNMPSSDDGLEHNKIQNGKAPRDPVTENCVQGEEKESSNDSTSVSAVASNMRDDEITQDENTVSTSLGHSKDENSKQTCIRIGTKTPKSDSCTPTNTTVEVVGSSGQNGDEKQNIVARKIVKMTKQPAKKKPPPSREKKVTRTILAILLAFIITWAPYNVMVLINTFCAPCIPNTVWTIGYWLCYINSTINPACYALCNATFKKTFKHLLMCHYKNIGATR", "assay": "CEREP screen: muscarinic receptor M2", "format": "binding", "parameters": "dose or concentration left out as unconfirmed", "method": "as §3"}, "[7]": {"target": "T3, monoamine (NE) transporters (Homo sapiens, UniProt P23975)", "T3 construct": "CEREP", "T3 sequence (P23975 whole entry)": "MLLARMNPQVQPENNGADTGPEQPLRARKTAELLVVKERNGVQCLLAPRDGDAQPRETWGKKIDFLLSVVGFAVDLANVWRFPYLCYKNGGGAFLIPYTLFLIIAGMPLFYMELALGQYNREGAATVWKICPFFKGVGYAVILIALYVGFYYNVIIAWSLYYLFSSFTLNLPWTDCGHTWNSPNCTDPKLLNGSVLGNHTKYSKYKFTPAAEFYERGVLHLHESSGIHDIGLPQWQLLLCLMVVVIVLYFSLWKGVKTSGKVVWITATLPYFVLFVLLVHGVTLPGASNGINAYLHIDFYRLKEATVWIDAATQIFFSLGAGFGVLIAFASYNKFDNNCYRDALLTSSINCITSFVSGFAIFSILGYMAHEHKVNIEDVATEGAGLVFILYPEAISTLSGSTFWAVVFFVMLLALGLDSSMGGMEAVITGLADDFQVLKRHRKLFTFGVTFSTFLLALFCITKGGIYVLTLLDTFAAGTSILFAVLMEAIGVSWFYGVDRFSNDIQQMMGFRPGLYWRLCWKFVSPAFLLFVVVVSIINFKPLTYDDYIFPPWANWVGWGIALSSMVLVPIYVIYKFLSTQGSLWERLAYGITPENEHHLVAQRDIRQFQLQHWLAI", "assay": "CEREP screen: NE transporter", "format": "binding", "parameters": "dose or concentration left out as unconfirmed", "method": "as §3"}},
  "note": "Where two headings read alike, the source gives them in different places.",
  "data": [
    {"compound": "CCCCCCCCCCC[C@H]1CCC[C@H](C)N1", "note": "(relative stereo) [SPI-001, trans-2-methyl 6-n-undecylpiperidine]", "values": [
      {"measurement": "SPI-001 levels in brain", "setting": "[1]", "result": "increased significantly"},
      {"measurement": "SPI-001 levels in plasma", "setting": "[1]", "result": "increased significantly"},
      {"measurement": "time SPI-001 levels were maintained in brain", "setting": "[1]", "result": "approximately 24 hours"},
      {"measurement": "time SPI-001 levels were maintained in plasma", "setting": "[1]", "result": "approximately 24 hours"},
      {"measurement": "effect on CamK1δ", "setting": "CamK1δ", "result": "inhibits"},
      {"measurement": "brain Aβ1-42 peptide levels", "setting": "Aβ1-42 peptide [2]; compared to control animals given 25% PEG only", "result": "decreased"},
      {"measurement": "plasma Aβ1-42 peptide levels", "setting": "Aβ1-42 peptide [2]; compared to control levels", "result": "increased"},
      {"measurement": "solubility", "setting": "Solubility of SPI-001; dimethyl sulfoxide (DMSO), read-out: solubility in dimethyl sulfoxide (DMSO)", "result": 100, "unit": "mg/mL"},
      {"measurement": "solubility", "setting": "Solubility of SPI-001; ethanol, read-out: solubility in ethanol", "result": 100, "unit": "mg/mL"},
      {"measurement": "solubility in water", "setting": "Solubility of SPI-001; water", "result": "slightly soluble"},
      {"measurement": "Aβ peptide levels", "setting": "Aβ peptide", "result": "significantly reduced"},
      {"measurement": "effect on MSK1", "setting": "MSK1", "result": "inhibits"},
      {"measurement": "inhibition of Na+ channels", "setting": "Na+ channels", "result": "~90", "unit": "%"},
      {"measurement": "effect on Pl3 kinase", "setting": "Pl3 kinase", "result": "inhibiting"},
      {"measurement": "brain Aβ1-42 peptide levels", "setting": "Aβ1-42 peptide [3]; single 10 mg/kg oral in 25% PEG 400, 4 hr", "result": "decreased"},
      {"measurement": "plasma Aβ1-42 peptide levels", "setting": "Aβ1-42 peptide [3]; single 10 mg/kg oral, 4 hr", "result": "increased"},
      {"measurement": "brain Aβ1-42 peptide levels", "setting": "Aβ1-42 peptide [3]; single 10 mg/kg oral, 24 hours", "result": "continued to decrease"},
      {"measurement": "plasma Aβ1-42 peptide levels", "setting": "Aβ1-42 peptide [3]; single 10 mg/kg oral, 24 hours", "result": "continued to increase"},
      {"measurement": "brain Aβ1-42 peptide levels", "setting": "Aβ1-42 peptide [3]; single 10 mg/kg oral, 48 hours", "result": "returned to control levels"},
      {"measurement": "plasma Aβ1-42 peptide levels", "setting": "Aβ1-42 peptide [3]; single 10 mg/kg oral, 48 hours", "result": "returned to control levels"},
      {"measurement": "brain Aβ1-42 peptide levels", "setting": "Aβ1-42 peptide [3]; single 10 mg/kg oral, 7 days", "result": "returned to control levels"},
      {"measurement": "plasma Aβ1-42 peptide levels", "setting": "Aβ1-42 peptide [3]; single 10 mg/kg oral, 7 days", "result": "returned to control levels"},
      {"measurement": "brain Aβ1-42 peptide levels", "setting": "Aβ1-42 peptide [4]; 4 hr", "result": "decreased"},
      {"measurement": "plasma Aβ1-42 peptide levels", "setting": "Aβ1-42 peptide [4]; 4 hr", "result": "increased"},
      {"measurement": "brain Aβ1-42 peptide levels", "setting": "Aβ1-42 peptide [4]; 24 hours", "result": "continued to decrease"},
      {"measurement": "plasma Aβ1-42 peptide levels", "setting": "Aβ1-42 peptide [4]; 24 hours", "result": "continued to increase"},
      {"measurement": "brain Aβ1-42 peptide levels", "setting": "Aβ1-42 peptide [4]; 48 hours", "result": "returned to control levels"},
      {"measurement": "plasma Aβ1-42 peptide levels", "setting": "Aβ1-42 peptide [4]; 48 hours", "result": "returned to control levels"},
      {"measurement": "brain Aβ1-42 peptide levels", "setting": "Aβ1-42 peptide [4]; 7 days", "result": "returned to control levels"},
      {"measurement": "plasma Aβ1-42 peptide levels", "setting": "Aβ1-42 peptide [4]; 7 days", "result": "returned to control levels"},
      {"measurement": "amyloid load", "setting": "amyloid load", "result": "significantly reduced"},
      {"measurement": "systemic pathological features (liver, kidney, heart, lungs, intestine)", "setting": "APP transgenic mice", "result": "did not show any signs of systemic pathological features"},
      {"measurement": "inhibition", "setting": "[5]", "result": "~90", "unit": "%"},
      {"measurement": "inhibition", "setting": "[6]", "result": "~90", "unit": "%"},
      {"measurement": "inhibition", "setting": "[7]", "result": "~90", "unit": "%"}
    ]}
  ]
}
